Source: BindingDB's records for doi:10.1021/jm00093a008 (Technical University of Denmark, 1992)

Test: Concentration inhibiting Clostridium histolyticum collagenase.

Structure (SMILES) | IC50 [nM]
COC1C(O[C@@H]2c3c(cc4c(c3O)C(=O)c3c(O)cccc3C4=O)C(=O)[C@](C)(O)[C@H]2OC)OC(C)C(O)C1O (stereo not given in full) | 3000
COC1C(O[C@@H]2c3c(cc4c(c3O)C(=O)c3c(O)cccc3C4=O)C(=O)[C@@](C)(O)[C@H]2OC)OC(C)C(O)C1O[Si](C)(C)C(C)(C)C (stereo not given in full) | 17000
COC1C(C)OC(O[C@@H]2c3c(cc4c(c3O)C(=O)c3c(O)cccc3C4=O)C(=O)[C@@](C)(O)[C@H]2OC)C(OC)C1OC (stereo not given in full) | 670
CCOP(=O)(OCC)O[C@]1(C)C(=O)c2cc3c(c(O)c2[C@@H](OC2OC(C)C(O)C(O)C2OC)[C@@H]1OC)C(=O)c1c(O)cccc1C3=O (stereo not given in full) | 220
COC1C(O[C@@H]2c3c(cc4c(c3O)C(=O)c3c(O)cccc3C4=O)C(=O)[C@@](C)(O)[C@H]2OC)OC(C)C(OC(C)=O)C1OC(C)=O (stereo not given in full) | > 100000
COC1C(O[C@@H]2c3c(cc4c(c3O)C(=O)c3c(O)cccc3C4=O)C(=O)[C@@](C)(O)[C@H]2OC)OC(C)C(O)C1O (stereo not given in full) | 370
CO[C@H]1[C@H](O)c2c(cc3c(c2O)C(=O)c2c(O)cccc2C3=O)C(=O)[C@@]1(C)O | 19000
COC1C(O[C@@H]2c3c(cc4c(c3O)C(=O)c3c(O)c(N(C)C)cc(N(C)C)c3C4=O)C(=O)[C@@](C)(O)[C@H]2OC)OC(C)C(O)C1O (stereo not given in full) | > 100000
COC1C(O[C@@H]2c3c(cc4c(c3O)C(=O)c3c(ccc(N(C)C)c3O)C4=O)C(=O)[C@@](C)(O)[C@H]2OC)OC(C)C(O)C1O (stereo not given in full) | 2000

Test: as above
Remark: another data set of the same source

Structure (SMILES) | IC50 [nM]
CC[C@@]1(O)C[C@H](O[C@H]2C[C@H](N(C)C)[C@H](O[C@H]3C[C@H](O)[C@H](O[C@H]4CCC(=O)[C@H](C)O4)[C@H](C)O3)[C@H](C)O2)c2c(cc3c(c2O)C(=O)c2c(O)cccc2C3=O)[C@H]1C(=O)OC [ACLACINOMYCIN A] | 9900
